Values after ≈ are worked out from the molar mass of the structure shown. Where two headings read alike, the source gives them in different places.
Tests used:
Assay in all cases: Antibacterial activity, agar dilution streak MIC
Format in all cases: cell-based
[1] = system: Staphyloccocus aureus 209P; settings: read-out: Minimum inhibitory concentration
Method: (§1) The antibacterial activities of the compounds of this invention were assayed by the standard agar dilution streak method against Gram-positive and Gram-negative bacteria [Chemothrapy, 22, 1126 (1974)].

[2] = system: Streptococcus pyogenes IID692; settings: Streptococcus pyogenes IID692, Gram +; read-out: Minimum inhibitory concentration
Method: as §1

Bacillus subtilis PCI219 = settings: Bacillus subtilis PCI219, Gram +; read-out: Minimum inhibitory concentration
Method: as §1

[3] = system: Diplococcus pneumoniae IID552; settings: Streptococcus pneumoniae; Diplococcus pneumoniae IID552, Gram +; read-out: Minimum inhibitory concentration
Method: as §1

[4] = system: Escherichia coli NIHJ JC-2; settings: NIHJJC2, read-out: Minimum inhibitory concentration
Method: as §1

[5] = system: Klebsiella pneumoniae IF03512; settings: Klebsiella pneumoniae IF03512, Gram -; read-out: Minimum inhibitory concentration
Method: as §1

Proteus vulgaris IF03167 = settings: Proteus vulgaris IF03167, Gram -; read-out: Minimum inhibitory concentration
Method: as §1

[6] = system: Pseudo. aeruginosa IF012689; settings: Pseudomonas aeruginosa; Pseudo. aeruginosa IF012689, Gram -; read-out: Minimum inhibitory concentration
Method: as §1

[7] = system: Pseudomonas aeruginosa VI; settings: Gram -, read-out: Minimum inhibitory concentration
Method: as §1

S. aureus ATCC14775 = settings: Staphylococcus aureus; S. aureus ATCC14775, Gram +; read-out: Minimum inhibitory concentration
Method: as §1

[8] = system: Salmonella enteritidis IID604; settings: Salmonella enterica, read-out: Minimum inhibitory concentration
Method: as §1

Shigella sonnei IID969 = settings: Shigella sonnei IID969, Gram -; read-out: Minimum inhibitory concentration
Method: The antibacterial activities of the compounds of this invention were assayed by the standard agar dilution streak method against Gram-positive and Gram-negative bacteria [Chemothrapy, 22, 1126 (1974)]. The result was shown in Table 1 together with a known agent, nalidixic acid.

CCn1cc(C(=O)O)c(=O)c2ccc(C)nc21 [NA, Nalidixic acid, reference compound] gave an MIC [1] of 50 µg/mL (≈ 215 µM).

Work on C=Cn1cc(C(=O)O)c(=O)c2cc(F)c(N3CCN(C)CC3)cc21 [Example 9, 1-vinyl-6-fluoro-7-(4-methyl-1-piperazinyl)-4-oxo-1,4-dihydroquinoline-3-carboxylic acid] yielded an MIC [2] of 12.5 µg/mL (≈ 37.7 µM).

Work on CCn1cc(C(=O)O)c(=O)c2cc(F)c(N3CCNCC3)cc21 [Example 1, 1-ethyl-6-fluoro-7-(1-piperazinyl)-4-oxo-1,4-dihydroquinoline-3-carboxylicacid] yielded an MIC (Bacillus subtilis PCI219) of 0.39 µg/mL (≈ 1.22 µM), an MIC [3] of 3.13 µg/mL (≈ 9.8 µM) and an MIC [4] of 0.1 µg/mL (≈ 0.313 µM). The MIC [5] was 0.05 µg/mL (≈ 0.157 µM), the MIC (Proteus vulgaris IF03167) was 0.1 µg/mL (≈ 0.313 µM) and the MIC [6] was 1.56 µg/mL (≈ 4.89 µM). For the same compound, the MIC [7] was 0.39 µg/mL (≈ 1.22 µM), the MIC (S. aureus ATCC14775) was 3.13 µg/mL (≈ 9.8 µM) and the MIC ([8]; Salmonella enteritidis IID604, Gram -) was 0.2 µg/mL (≈ 0.626 µM). For the same compound, the MIC ([1]; Staphyloccocus aureus 209P, Gram +) was 0.78 µg/mL (≈ 2.44 µM), the MIC [2] was 1.56 µg/mL (≈ 4.89 µM) and the MIC (Shigella sonnei IID969) was 0.1 µg/mL (≈ 0.313 µM).

Compound C=Cn1cc(C(=O)O)c(=O)c2cc(F)c(N3CCNCC3)cc21 [Example 8, 1-vinyl-6-fluoro-7-(1-piperazinyl)-4-oxo-1,4-dihydroquinoline-3-carboxylicacid] has an MIC [2] of 12.5 µg/mL (≈ 39.4 µM).

Compound CCn1cc(C(=O)O)c(=O)c2cc(F)c(N3CCN(C)CC3)cc21 [Example 6, 1-ethyl-6-fluoro-7-(4-methyl-1-piperazinyl)-4-oxo-1,4-dihydroquinoline-3-carboxylic acid] has an MIC [3] of 3.13 µg/mL (≈ 9.39 µM), an MIC [5] of 0.05 µg/mL (≈ 0.15 µM) and an MIC [6] of 3.13 µg/mL (≈ 9.39 µM). For the same compound, the MIC [8] was 0.78 µg/mL (≈ 2.34 µM), the MIC [2] was 6.25 µg/mL (≈ 18.7 µM) and the MIC (Shigella sonnei IID969) was 0.1 µg/mL (≈ 0.3 µM).
